# Measurements from US11590116B2 (THERAVANCE BIOPHARMA R&D IP, LLC, priority 2019, dated 2023).
# Columns and labels:
# [1] = system: TGF-β-stimulated SMAD3 phosphorylation in BEAS-2B cells; assay: Cellular ALK5 potency assay, inhibition of TGF-β stimulated pSMAD3 formation in BEAS-2B cells; format: cell-based; conditions: Homo sapiens; inhibition of TGF-β stimulated pSMAD3 formation, BEAS-2B cells; read-out: BEAS2B pIC50 (converted)
# In short: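 AlphaLISA pSMAD3 read-out, beads incubated overnight. Human BEAS-2B cells: 1 h compound preincubation (37 °C, 5% CO2), then 30 min TGF-β at 10 ng/mL final, immediate lysis. Values are pIC50 relative to stimulated, compound-free baseline.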
# [2] = molecular target: T1, recombinant human ALK5 (TGF-βR1) protein (Homo sapiens, UniProt P36897); assay: Biochemical ALK5 (TGF-βR1) assay to measure pKi (LANCE Ultra ULight kinase assay); conditions: apparent pKi from pIC50 by Cheng-Prusoff, read-out: ALK5 pKi (converted)
# T1 construct: purchased Life Technologies PR9075A
# T1 sequence (P36897 34-503): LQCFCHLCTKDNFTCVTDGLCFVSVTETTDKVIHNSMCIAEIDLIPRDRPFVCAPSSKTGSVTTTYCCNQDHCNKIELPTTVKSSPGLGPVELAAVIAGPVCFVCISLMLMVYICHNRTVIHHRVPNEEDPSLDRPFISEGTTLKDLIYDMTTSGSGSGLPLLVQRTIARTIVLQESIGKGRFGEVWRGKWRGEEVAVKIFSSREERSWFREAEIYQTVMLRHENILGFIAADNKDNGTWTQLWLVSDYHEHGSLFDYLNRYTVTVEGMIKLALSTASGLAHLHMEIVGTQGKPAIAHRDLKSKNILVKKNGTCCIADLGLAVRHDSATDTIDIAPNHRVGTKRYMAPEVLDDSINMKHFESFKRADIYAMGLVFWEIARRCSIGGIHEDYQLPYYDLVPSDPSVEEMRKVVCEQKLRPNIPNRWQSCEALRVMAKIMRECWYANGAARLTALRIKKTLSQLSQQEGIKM
# In short: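 After a 60 min room-temperature preincubation of ALK5 with compound, phosphorylation proceeds 60 min at 37 °C on ATP addition (125 μM as 5× stock). Detection: Eu-labelled phospho-Thr1342 Topo IIα antibody in EDTA buffer, pH 7.0; emission 665 nm.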
Structure (SMILES),Ki [2] [nM],IC50 [1] [nM]
"Cc1cccc(-c2n[nH]cc2-c2ccc3ncc(N4CC(N(C)C)C4)cc3n2)n1 [Compound 368, N,N-dimethyl-1-[6-[3-(6-methyl-2-pyridyl)-1H-pyrazol-4-yl]-1,5-naphthyridin-3-yl]azetidin-3-amine]",< 0.0316,25.1 to 158
"Cc1cccc(-c2n[nH]cc2-c2ccc3nccc(Cl)c3n2)n1 [Compound 851, 8-chloro-2-[3-(6-methyl-2-pyridyl)-1H-pyrazol-4-yl]-1,5-naphthyridine]",0.0398 to 0.316,< 20
"Cc1nc(-c2n[nH]cc2-c2ccc3ncc(-c4cn[nH]c4)cc3n2)ccc1F [Compound 482, 2-[3-(5-fluoro-6-methyl-2-pyridyl)-1H-pyrazol-4-yl]-7-(1H-pyrazol-4-yl)-1,5-naphthyridine]",< 0.0316,< 20
"Cc1cccc(-c2n[nH]cc2-c2ccc3ncc(-c4cccnc4O)cc3n2)n1 [Compound 585, 3-[6-[3-(6-methyl-2-pyridyl)-1H-pyrazol-4-yl]-1,5-naphthyridin-3-yl]pyridin-2-ol]",< 0.0316,25.1 to 158
"Cc1cccc(-c2n[nH]cc2-c2ccc3ncc(N4CC(C)NC(C)C4)cc3n2)n1 (stereo not shown) [Compound 28, 7-(3,5-dimethylpiperazin-1-yl)-2-[3-(6-methyl-2-pyridyl)-1H-pyrazol-4-yl]-1,5-naphthyridine]",< 0.0316,25.1 to 158
"Cc1nc(-c2[nH]cnc2-c2ccc3ncc(-c4cn[nH]c4)cc3n2)ccc1F [Compound 536, 2-[5-(5-fluoro-6-methyl-2-pyridyl)-1H-imidazol-4-yl]-7-(1H-pyrazol-4-yl)-1,5-naphthyridine]",< 0.0316,< 20
"Cc1cccc(-c2n[nH]cc2-c2ccc3ncc(-c4cnc5n4CCCN5)cc3n2)n1 [Compound 655, 2-[3-(6-methyl-2-pyridyl)-1H-pyrazol-4-yl]-7-(5,6,7,8-tetrahydroimidazo[1,2-a]pyrimidin-3-yl)-1,5-naphthyridine]",0.0398 to 0.316,25.1 to 158
"Cc1cccc(-c2nc3ncccn3c2-c2ccc3ncc(-c4cn[nH]c4)cc3n2)n1 [Compound 676, 2-(2-(6-methylpyridin-2-yl)imidazo[1,2-a]pyrimidin-3-yl)-7-(1H-pyrazol-4-yl)-1,5-naphthyridine]",0.0398 to 0.316,25.1 to 158
"Cc1cccc(-c2n[nH]cc2-c2ccc3ncc(N4CCNC(CO)C4)cc3n2)n1 (stereo not shown) [Compound 66, [4-[6-[3-(6-methyl-2-pyridyl)-1H-pyrazol-4-yl]-1,5-naphthyridin-3-yl]piperazin-2-yl]methanol]",0.0398 to 0.316,25.1 to 158
"CNCCn1cc(-c2cnc3ccc(-c4nn[nH]c4-c4cccc(C)n4)nc3c2)cn1 [Compound 29, N-methyl-2-(4-(6-(5-(6-methylpyridin-2-yl)-1H-1,2,3-triazol-4-yl)-1,5-naphthyridin-3-yl)-1H-pyrazol-1-yl)ethan-1-amine]",< 0.0316,200 to 1260
"Cc1cccc(-c2n[nH]cc2-c2ccc3ncc(-c4nc(CN5CCN(C(C)C)CC5)co4)cc3n2)n1 [Compound 246, 4-[(4-isopropylpiperazin-1-yl)methyl]-2-[6-[3-(6-methyl-2-pyridyl)-1H-pyrazol-4-yl]-1,5-naphthyridin-3-yl]oxazole]",0.0398 to 0.316,25.1 to 158
"Cc1cccc(-c2n[nH]cc2-c2ccc3ncc(NC(=O)C(F)(F)F)cc3n2)n1 [Compound 610, 2,2,2-trifluoro-N-[6-[3-(6-methyl-2-pyridyl)-1H-pyrazol-4-yl]-1,5-naphthyridin-3-yl]acetamide]",0.0398 to 0.316,25.1 to 158

# Further lines, with some results ahead:
Ki [2] [nM],Structure (SMILES),IC50 [1] [nM]
< 0.0316,"Cc1cccc(-c2[nH]cnc2-c2ccc3ncc(-c4ccc5c(c4)CC[C@H]5N)cc3c2)n1 [Compound 1154, (1R)-5-[6-[5-(6-methyl-2-pyridyl)-1H-imidazol-4-yl]-3-quinolyl]indan-1-amine]",< 20
0.0398 to 0.316,"Cc1cccc(-c2[nH]cnc2-c2ccc3ncc(-c4cc(C(=O)OCC5CNC5)ccn4)cc3c2)n1 [Compound 1157, azetidin-3-ylmethyl 2-[6-[5-(6-methyl-2-pyridyl)-1H-imidazol-4-yl]-3-quinolyl]pyridine-4-carboxylate]",25.1 to 158
0.398 to 3.16,"Cc1cccc(-c2[nH]cnc2-c2ccc3ncc(C(=O)OCCN4CCCC4)cc3c2)n1 [Compound 737, 2-pyrrolidin-1-ylethyl 6-[5-(6-methyl-2-pyridyl)-1H-imidazol-4-yl]quinoline-3-carboxylate]",25.1 to 158
0.0398 to 0.316,"Cc1cccc(-c2[nH]cnc2-c2ccc3ncc(C(=O)OCC4CCNCC4)cc3c2)n1 [Compound 741, 4-piperidylmethyl 6-[5-(6-methyl-2-pyridyl)-1H-imidazol-4-yl]quinoline-3-carboxylate]",25.1 to 158
0.398 to 3.16,"Cc1cccc(-c2[nH]cnc2-c2ccc3ncc(-c4nccc(C(=O)O[C@H]5CCNC5)n4)cc3c2)n1 [Compound 1073, [(3S)-pyrrolidin-3-yl] 2-[6-[5-(6-methyl-2-pyridyl)-1H-imidazol-4-yl]-3-quinolyl]pyrimidine-4-carboxylate]",1580 to 10000
0.0398 to 0.316,"Cc1cccc(-c2[nH]cnc2-c2ccc3ncc(-c4cc(C(=O)O[C@H]5CCNC5)ccn4)cc3c2)n1 [Compound 1060, [(3S)-pyrrolidin-3-yl] 2-[6-[5-(6-methyl-2-pyridyl)-1H-imidazol-4-yl]-3-quinolyl]pyridine-4-carboxylate]",25.1 to 158
< 0.0316,"Cc1cccc(-c2n[nH]cc2-c2ccc3ncc(-c4ccc5c(n4)CCNC5)cc3n2)n1 [Compound 678, 2-[3-(6-methyl-2-pyridyl)-1H-pyrazol-4-yl]-7-(5,6,7,8-tetrahydro-1,6-naphthyridin-2-yl)-1,5-naphthyridine]",25.1 to 158
0.0398 to 0.316,"Cc1cccc(-c2[nH]cnc2-c2ccc3ncc(-c4csc(C(=O)O[C@H]5CC[C@](C)(N)CC5)c4)cc3c2)n1 [Compound 1200, (4-amino-4-methyl-cyclohexyl) 4-[6-[5-(6-methyl-2-pyridyl)-1H-imidazol-4-yl]-3-quinolyl]thiophene-2-carboxylate]",25.1 to 158
< 0.0316,"Cc1cccc(-c2nnn(C)c2-c2ccc3ncc(-c4cn[nH]c4)cc3c2)n1 [Compound 399, 6-[3-methyl-5-(6-methyl-2-pyridyl)triazol-4-yl]-3-(1H-pyrazol-4-yl)quinoline]",< 20
0.0398 to 0.316,"Cc1cccc(-c2[nH]cnc2-c2ccc3ncc(C4=CC[C@H](NC(=O)[C@@H]5CCCN5)CC4)cc3c2)n1 [Compound 418, (2S)—N-[(1R)-4-[6-[5-(6-methyl-2-pyridyl)-1H-imidazol-4-yl]-3-quinolyl]cyclohex-3-en-1-yl]pyrrolidine-2-carboxamide]",25.1 to 158
0.0398 to 0.316,"Cc1cccc(-c2[nH]cnc2-c2ccc3ncc(C4=CCC(C(=O)O)CC4)cc3c2)n1 (stereo not shown) [Compound 461, 4-[6-[5-(6-methyl-2-pyridyl)-1H-imidazol-4-yl]-3-quinolyl]cyclohex-3-ene-1-carboxylic acid]",25.1 to 158
0.0398 to 0.316,"Cc1cccc(-c2[nH]cnc2-c2ccc3ncc(NCCN4CCCC4)cc3c2)n1 [Compound 30, 6-[5-(6-methyl-2-pyridyl)-1H-imidazol-4-yl]-N-(2-pyrrolidin-1-ylethyl)quinolin-3-amine]",25.1 to 158
0.0398 to 0.316,"Cc1cccc(-c2[nH]c(CNc3ccccc3F)nc2-c2ccc3ncc(N4CCC(N(C)C)C4)cc3c2)n1 (racemic) [Compound 652, rac-(3S)-1-[6-[2-[(2-fluoroanilino)methyl]-5-(6-methyl-2-pyridyl)-1H-imidazol-4-yl]-3-quinolyl]-N,N-dimethyl-pyrrolidin-3-amine]",200 to 1260
0.0398 to 0.316,"Cc1cccc(-c2[nH]cnc2-c2ccc3ncc(-c4nc(C(=O)OC5CCNCC5)cs4)cc3c2)n1 [Compound 742, 4-piperidyl 2-[6-[5-(6-methyl-2-pyridyl)-1H-imidazol-4-yl]-3-quinolyl]thiazole-4-carboxylate]",25.1 to 158
0.0398 to 0.316,"Cc1cccc(-c2[nH]cnc2-c2ccc3ncc(-c4nc(C(=O)O)cs4)cc3c2)n1 [Compound 797, 2-(6-(5-(6-methylpyridin-2-yl)-1H-imidazol-4-yl)quinolin-3-yl)thiazole-4-carboxylic acid]",1580 to 10000
0.0398 to 0.316,"Cc1cccc(-c2[nH]cnc2-c2ccc3ncc(N4CCCC5(CNC5)C4)cc3c2)n1 [Compound 280, 3-(2,6-diazaspiro[3.5]nonan-6-yl)-6-[5-(6-methyl-2-pyridyl)-1H-imidazol-4-yl]quinoline]",200 to 1260
< 0.0316,"Cc1cccc(-c2[nH]cnc2-c2ccc3ncc(C4=CCC(O)CC4)cc3c2)n1 (stereo not shown) [Compound 432, 4-[6-[5-(6-methyl-2-pyridyl)-1H-imidazol-4-yl]-3-quinolyl]cyclohex-3-en-1-ol]",< 20
